From PubChem BioAssay (NCI)
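Compound exposure: 48 hours, 5 concentrations, 96-well plates. GI50 marks 50% less growth. At the TGI there is no net growth.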

Assays:
Assay in all cases: NCI anticancer screen, dose series, 48 h
786-0 renal = test system: 786-0 renal
A498 renal = test system: A498 renal
A549 NSCLC = test system: A549 NSCLC
ACHN renal = test system: ACHN renal
BT-549 breast = test system: BT-549 breast
CAKI-1 renal = test system: CAKI-1 renal
COLO 205 colon = test system: COLO 205 colon
EKVX NSCLC = test system: EKVX NSCLC
HCC-2998 colon = test system: HCC-2998 colon
HCT-116 colon = test system: HCT-116 colon
HCT-15 colon = test system: HCT-15 colon
HL-60(TB) leukemia = test system: HL-60(TB) leukemia
HOP-62 NSCLC = test system: HOP-62 NSCLC
HOP-92 NSCLC = test system: HOP-92 NSCLC
HS 578T breast = test system: HS 578T breast
HT29 colon = test system: HT29 colon
IGROV1 ovarian = test system: IGROV1 ovarian
K-562 leukemia = test system: K-562 leukemia
KM12 colon = test system: KM12 colon
LOX IMVI melanoma = test system: LOX IMVI melanoma
M14 melanoma = test system: M14 melanoma
MALME-3M melanoma = test system: MALME-3M melanoma
MDA-MB-231 breast = test system: MDA-MB-231 breast
MDA-MB-435 = test system: MDA-MB-435
MOLT-4 leukemia = test system: MOLT-4 leukemia
NCI-H226 lung = test system: NCI-H226 lung
NCI-H460 lung = test system: NCI-H460 lung
NCI-H522 lung = test system: NCI-H522 lung
NCI/ADR-RES ovarian = test system: NCI/ADR-RES ovarian
OVCAR-3 ovarian = test system: OVCAR-3 ovarian
OVCAR-4 ovarian = test system: OVCAR-4 ovarian
OVCAR-5 ovarian = test system: OVCAR-5 ovarian
OVCAR-8 ovarian = test system: OVCAR-8 ovarian
PC-3 prostate = test system: PC-3 prostate
RXF 393 renal = test system: RXF 393 renal
SF-268 CNS = test system: SF-268 CNS
SF-295 CNS = test system: SF-295 CNS
SF-539 CNS = test system: SF-539 CNS
SK-MEL-2 melanoma = test system: SK-MEL-2 melanoma
SK-MEL-28 melanoma = test system: SK-MEL-28 melanoma
SK-MEL-5 melanoma = test system: SK-MEL-5 melanoma
SK-OV-3 ovarian = test system: SK-OV-3 ovarian
SN12C renal = test system: SN12C renal
SNB-19 CNS = test system: SNB-19 CNS
SNB-75 CNS = test system: SNB-75 CNS
SR leukemia = test system: SR leukemia
SW-620 colon = test system: SW-620 colon
T-47D breast = test system: T-47D breast
TK-10 renal = test system: TK-10 renal
U251 CNS = test system: U251 CNS
UACC-257 melanoma = test system: UACC-257 melanoma
UACC-62 melanoma = test system: UACC-62 melanoma
UO-31 renal = test system: UO-31 renal

Compound `OC1CCN(CCCOc2c3ccc(Cl)cc3nc3c2oc2ccc(Cl)cc23)CC1` has a GI50 (786-0 renal) of 1130 nM, a TGI (786-0 renal) of 2490 nM and a GI50 (A498 renal) of 6740 nM. The TGI (A498 renal) was 21100 nM, the GI50 (A549 NSCLC) was 1050 nM and the TGI (A549 NSCLC) was 2500 nM. It also gave a GI50 (ACHN renal) of 504 nM, a TGI (ACHN renal) of 1690 nM and a GI50 (BT-549 breast) of 4510 nM. For the same compound, the TGI (BT-549 breast) was 18900 nM, the GI50 (CAKI-1 renal) was 877 nM and the TGI (CAKI-1 renal) was 2120 nM. The GI50 (COLO 205 colon) was 1160 nM, the TGI (COLO 205 colon) was 3180 nM and the GI50 (EKVX NSCLC) was 2840 nM. The TGI (EKVX NSCLC) was 13200 nM, the GI50 (HCC-2998 colon) was 868 nM and the TGI (HCC-2998 colon) was 15800 nM. The GI50 (HCT-116 colon) was 417 nM, the TGI (HCT-116 colon) was 1590 nM and the GI50 (HCT-15 colon) was 518 nM. The TGI (HCT-15 colon) was 2070 nM, the GI50 (HL-60(TB) leukemia) was 1480 nM and the TGI (HL-60(TB) leukemia) was 3230 nM. It also gave a GI50 (HOP-62 NSCLC) of 1850 nM, a TGI (HOP-62 NSCLC) of 12500 nM and a GI50 (HOP-92 NSCLC) of 588 nM. For the same compound, the TGI (HOP-92 NSCLC) was 6770 nM, the GI50 (HS 578T breast) was 2750 nM and the TGI (HS 578T breast) was 17200 nM. It also gave a GI50 (HT29 colon) of 505 nM, a TGI (HT29 colon) of 1770 nM and a GI50 (IGROV1 ovarian) of 1710 nM. The TGI (IGROV1 ovarian) was 15000 nM, the GI50 (K-562 leukemia) was 417 nM and the TGI (K-562 leukemia) was 1930 nM. It also gave a GI50 (KM12 colon) of 1060 nM, a TGI (KM12 colon) of 3610 nM and a GI50 (LOX IMVI melanoma) of 298 nM. The TGI (LOX IMVI melanoma) was 1420 nM, the GI50 (M14 melanoma) was 1430 nM and the TGI (M14 melanoma) was 2840 nM. It also gave a GI50 (MALME-3M melanoma) of 1730 nM, a TGI (MALME-3M melanoma) of 3480 nM and a GI50 (MDA-MB-231 breast) of 1260 nM. For the same compound, the TGI (MDA-MB-231 breast) was 2870 nM, the GI50 (MDA-MB-435) was 1340 nM and the TGI (MDA-MB-435) was 2700 nM. For the same compound, the GI50 (MOLT-4 leukemia) was 443 nM, the TGI (MOLT-4 leukemia) was 1960 nM and the GI50 (NCI-H226 lung) was 1670 nM. It also gave a TGI (NCI-H226 lung) of 4130 nM, a GI50 (NCI-H460 lung) of 465 nM and a TGI (NCI-H460 lung) of 1990 nM. It also gave a GI50 (NCI-H522 lung) of 1800 nM, a TGI (NCI-H522 lung) of 11100 nM and a GI50 (NCI/ADR-RES ovarian) of 718 nM. It also gave a TGI (NCI/ADR-RES ovarian) of 2770 nM, a GI50 (OVCAR-3 ovarian) of 1560 nM and a TGI (OVCAR-3 ovarian) of 4120 nM. For the same compound, the GI50 (OVCAR-4 ovarian) was 1240 nM, the TGI (OVCAR-4 ovarian) was 2790 nM and the GI50 (OVCAR-5 ovarian) was 1380 nM. It also gave a TGI (OVCAR-5 ovarian) of 2850 nM, a GI50 (OVCAR-8 ovarian) of 1540 nM and a TGI (OVCAR-8 ovarian) of 18900 nM. For the same compound, the GI50 (PC-3 prostate) was 1230 nM, the TGI (PC-3 prostate) was 2550 nM and the GI50 (RXF 393 renal) was 1240 nM. It also gave a TGI (RXF 393 renal) of 2520 nM, a GI50 (SF-268 CNS) of 1150 nM and a TGI (SF-268 CNS) of 4500 nM. For the same compound, the GI50 (SF-295 CNS) was 3020 nM, the TGI (SF-295 CNS) was 15800 nM and the GI50 (SF-539 CNS) was 1360 nM. It also gave a TGI (SF-539 CNS) of 2670 nM, a GI50 (SK-MEL-2 melanoma) of 5320 nM and a TGI (SK-MEL-2 melanoma) of 17700 nM. For the same compound, the GI50 (SK-MEL-28 melanoma) was 1770 nM, the TGI (SK-MEL-28 melanoma) was 3180 nM and the GI50 (SK-MEL-5 melanoma) was 2230 nM. The TGI (SK-MEL-5 melanoma) was 5030 nM, the GI50 (SK-OV-3 ovarian) was 3370 nM and the TGI (SK-OV-3 ovarian) was 15500 nM. For the same compound, the GI50 (SN12C renal) was 864 nM, the TGI (SN12C renal) was 2380 nM and the GI50 (SNB-19 CNS) was 1450 nM. For the same compound, the TGI (SNB-19 CNS) was 3220 nM, the GI50 (SNB-75 CNS) was 2850 nM and the TGI (SNB-75 CNS) was 16300 nM. It also gave a GI50 (SR leukemia) of 595 nM, a TGI (SR leukemia) of 2620 nM and a GI50 (SW-620 colon) of 455 nM. It also gave a TGI (SW-620 colon) of 1790 nM, a GI50 (T-47D breast) of 5770 nM and a TGI (T-47D breast) of 36500 nM. It also gave a GI50 (TK-10 renal) of 3050 nM, a TGI (TK-10 renal) of 8400 nM and a GI50 (U251 CNS) of 876 nM. It also gave a TGI (U251 CNS) of 2270 nM, a GI50 (UACC-257 melanoma) of 1790 nM and a TGI (UACC-257 melanoma) of 3680 nM. The GI50 (UACC-62 melanoma) was 1830 nM, the TGI (UACC-62 melanoma) was 3780 nM and the GI50 (UO-31 renal) was 768 nM. It also gave a TGI (UO-31 renal) of 2170 nM.
